This note sets out measurements from ChEMBL document CHEMBL4118037, “Lactone Derivatives Produced by a Phaeoacremonium sp., an Endophytic Fungus from Senna spectabilis” (J Nat Prod, 2017).

Assay [1] concerns Cladosporium sphaerospermum. As to the kind of experiment: Antifungal activity against Cladosporium sphaerospermum (Perzig) SPC 491 assessed as detection limit for activity by bioautographic method. It counts as functional.
Assay [2] relates to Cladosporium cladosporioides. As to the kind of experiment: Antifungal activity against Cladosporium cladosporioides (Fresen) Vries SPC 140 assessed as detection limit for activity by bioautographic method. Type of assay: functional.
Another assay deals with HeLa. As to the kind of experiment: Cytotoxicity against human HeLa cells assessed as reduction in cell viability by MTT assay. It counts as functional, cell-based. For orientation: Tetrazolium dyes change colour on reduction, which living cells bring about.

As to `CCCCCCC[C@H]1OC2=C(C(=O)[C@@H](C)O2)[C@@H](O)[C@]1(C)O`, the Activity in assay [1] and in assay [2] was 5 µg throughout. For the same compound, the IC50 (in general, the concentration needed to halve the response being measured) in the assay on HeLa is 50 µM.

On to `CCCCCCC[C@H]1OC2=C(C(=O)O[C@@H]2C)[C@@H](O)[C@@]1(C)O`, for which the Activity in assay [1] and in assay [2] was 25 µg throughout. The IC50 in the assay on HeLa is above 100 µM.

As for NYSTATIN, the Activity in assay [1] and in assay [2] was 1 µg each time.

For the compound `CCCCCCC[C@H]1OC2=C(C(=O)O[C@@H]2C)[C@@H](O)[C@]1(C)O`, the Activity in assay [1] and in assay [2] was 5 µg throughout. For the same compound, in the assay with HeLa, the IC50 worked out at 100 µM.

As for `CC[C@@]1(O)C(=O)OCc2c1cc1n(c2=O)Cc2cc3ccccc3nc2-1` [CAMPTOTHECIN], the IC50 in the assay on HeLa was determined as 0.12 µM.

As for `CCCCCCC[C@H]1OC2=C(C(=O)O[C@@]2(C)O)[C@@H](O)[C@]1(C)O`, in the assay on HeLa, the IC50 is above 100 µM.
